According to patent US8921376B2, “Pyrrolopyridines useful as inhibitors of protein kinase” (Vertex Pharmaceuticals Incorporated, priority 2005, dated 2014):

Columns and labels:
Format in all cases: biochemical
[1] = target: T1, JAK3 (Homo sapiens, UniProt P52333); experiment: JAK3 inhibition assay (33P incorporation into poly(Glu)4Tyr); details: enzyme inhibition, Table 5
T1 sequence (P52333 1-1124): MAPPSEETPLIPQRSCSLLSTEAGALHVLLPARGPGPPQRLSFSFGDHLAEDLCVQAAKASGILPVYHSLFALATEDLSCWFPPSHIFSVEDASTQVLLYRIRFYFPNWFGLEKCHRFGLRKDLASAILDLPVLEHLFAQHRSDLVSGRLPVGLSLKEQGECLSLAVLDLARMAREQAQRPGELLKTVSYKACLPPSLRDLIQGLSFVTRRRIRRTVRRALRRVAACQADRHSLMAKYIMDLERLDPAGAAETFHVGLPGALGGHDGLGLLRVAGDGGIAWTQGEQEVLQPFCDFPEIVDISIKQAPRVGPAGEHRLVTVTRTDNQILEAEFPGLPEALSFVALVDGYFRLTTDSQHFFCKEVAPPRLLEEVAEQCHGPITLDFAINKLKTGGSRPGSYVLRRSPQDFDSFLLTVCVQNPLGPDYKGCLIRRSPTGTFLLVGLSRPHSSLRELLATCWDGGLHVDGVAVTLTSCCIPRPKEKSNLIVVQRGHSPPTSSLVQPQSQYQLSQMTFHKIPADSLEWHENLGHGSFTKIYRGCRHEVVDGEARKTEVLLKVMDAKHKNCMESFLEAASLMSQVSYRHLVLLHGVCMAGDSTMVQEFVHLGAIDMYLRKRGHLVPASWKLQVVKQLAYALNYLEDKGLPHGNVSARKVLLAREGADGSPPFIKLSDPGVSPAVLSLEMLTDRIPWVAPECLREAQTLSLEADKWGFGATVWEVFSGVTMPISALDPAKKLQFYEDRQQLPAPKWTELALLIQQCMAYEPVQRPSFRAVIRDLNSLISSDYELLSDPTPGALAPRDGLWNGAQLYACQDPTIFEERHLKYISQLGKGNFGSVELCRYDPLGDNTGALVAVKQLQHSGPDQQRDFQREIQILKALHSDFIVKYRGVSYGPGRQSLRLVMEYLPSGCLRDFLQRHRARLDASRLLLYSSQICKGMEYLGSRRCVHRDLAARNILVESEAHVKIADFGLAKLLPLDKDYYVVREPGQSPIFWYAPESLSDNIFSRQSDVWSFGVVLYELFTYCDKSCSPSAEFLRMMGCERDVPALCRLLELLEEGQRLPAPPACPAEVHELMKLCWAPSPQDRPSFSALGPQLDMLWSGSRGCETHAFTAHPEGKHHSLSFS
Description: (§1) Compounds were screened for their ability to inhibit JAK using the assay shown below. Reactions were carried out in a kinase buffer containing 100 mM HEPES (pH 7.4), 1 mM DTT, 10 mM MgCl2, 25 mM NaCl, and 0.01% BSA.
(§2) Substrate concentrations in the assay were 5 μM ATP (200 μCi/μmole ATP) and 1 μM poly(Glu)4Tyr. Reactions were carried out at 25° C. and 1 nM JAK3.
(§3) To each well of a 96 well polycarbonate plate was added 1.5 μl of a candidate JAK3 inhibitor along with 50/1 of kinase buffer containing 2 μM poly(Glu)4Tyr and 10 μM ATP. This was then mixed and 50 μl of kinase buffer containing 2 nM JAK3 enzyme was added to start the reaction. After 20 minutes at room temperature (25 C), the reaction was stopped with 50 μl of 20% trichloroacetic acid (TCA) that also contained 0.4 mM ATP. The entire contents of each well were then transferred to a 96 well glass fiber filter plate using a TomTek Cell Harvester. After washing, 60 μl of scintillation fluid was added and ^33P incorporation detected on a Perkin Elmer TopCount.

[2] = target: JAK2 (Homo sapiens, UniProt O60674); experiment: JAK2 inhibition assay (as Example 3 with JAK-2 enzyme); details: enzyme inhibition, Table 5
Sequence of JAK2 (O60674 whole entry): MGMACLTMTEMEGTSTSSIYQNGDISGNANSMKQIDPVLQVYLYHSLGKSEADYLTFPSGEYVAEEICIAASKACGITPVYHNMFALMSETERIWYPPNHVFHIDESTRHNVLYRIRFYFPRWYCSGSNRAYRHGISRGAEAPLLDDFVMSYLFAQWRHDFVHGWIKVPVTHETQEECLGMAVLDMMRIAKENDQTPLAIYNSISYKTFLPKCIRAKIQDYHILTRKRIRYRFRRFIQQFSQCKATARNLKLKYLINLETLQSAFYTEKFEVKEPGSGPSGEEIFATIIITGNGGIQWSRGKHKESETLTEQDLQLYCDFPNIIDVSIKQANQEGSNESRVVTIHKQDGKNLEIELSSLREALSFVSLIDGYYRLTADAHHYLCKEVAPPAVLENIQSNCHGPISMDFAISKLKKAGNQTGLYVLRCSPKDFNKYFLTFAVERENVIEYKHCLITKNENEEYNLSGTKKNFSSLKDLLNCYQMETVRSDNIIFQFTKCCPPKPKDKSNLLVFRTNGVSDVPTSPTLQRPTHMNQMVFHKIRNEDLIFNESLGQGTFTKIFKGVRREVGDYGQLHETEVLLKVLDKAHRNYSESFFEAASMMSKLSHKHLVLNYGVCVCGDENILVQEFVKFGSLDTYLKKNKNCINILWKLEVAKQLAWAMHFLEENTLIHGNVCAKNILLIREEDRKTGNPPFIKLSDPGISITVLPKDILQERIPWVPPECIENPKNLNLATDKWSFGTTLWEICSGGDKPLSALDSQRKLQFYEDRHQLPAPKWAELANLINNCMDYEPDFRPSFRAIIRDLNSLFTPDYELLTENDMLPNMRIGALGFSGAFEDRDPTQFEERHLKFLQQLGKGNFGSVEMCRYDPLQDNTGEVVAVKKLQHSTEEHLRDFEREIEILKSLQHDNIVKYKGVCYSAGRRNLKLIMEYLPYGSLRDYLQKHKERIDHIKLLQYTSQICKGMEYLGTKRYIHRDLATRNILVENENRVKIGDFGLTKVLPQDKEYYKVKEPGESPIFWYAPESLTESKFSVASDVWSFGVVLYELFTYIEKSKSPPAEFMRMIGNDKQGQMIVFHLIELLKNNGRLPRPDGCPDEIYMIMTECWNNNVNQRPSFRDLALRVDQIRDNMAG
Description: as §1, §2, §3
The assays were as described above in Example 3 except that JAK-2 enzyme was used, the final poly(Glu)4Tyr concentration was 15 μM, and final ATP concentration was 12 μM.

[3] = target: ROCK I (Homo sapiens, UniProt Q13464); experiment: ROCK-I inhibition assay (radioactive enzyme assay, MBP substrate); details: enzyme inhibition, Ki(app), Table 5
Sequence of ROCK I (Q13464 whole entry): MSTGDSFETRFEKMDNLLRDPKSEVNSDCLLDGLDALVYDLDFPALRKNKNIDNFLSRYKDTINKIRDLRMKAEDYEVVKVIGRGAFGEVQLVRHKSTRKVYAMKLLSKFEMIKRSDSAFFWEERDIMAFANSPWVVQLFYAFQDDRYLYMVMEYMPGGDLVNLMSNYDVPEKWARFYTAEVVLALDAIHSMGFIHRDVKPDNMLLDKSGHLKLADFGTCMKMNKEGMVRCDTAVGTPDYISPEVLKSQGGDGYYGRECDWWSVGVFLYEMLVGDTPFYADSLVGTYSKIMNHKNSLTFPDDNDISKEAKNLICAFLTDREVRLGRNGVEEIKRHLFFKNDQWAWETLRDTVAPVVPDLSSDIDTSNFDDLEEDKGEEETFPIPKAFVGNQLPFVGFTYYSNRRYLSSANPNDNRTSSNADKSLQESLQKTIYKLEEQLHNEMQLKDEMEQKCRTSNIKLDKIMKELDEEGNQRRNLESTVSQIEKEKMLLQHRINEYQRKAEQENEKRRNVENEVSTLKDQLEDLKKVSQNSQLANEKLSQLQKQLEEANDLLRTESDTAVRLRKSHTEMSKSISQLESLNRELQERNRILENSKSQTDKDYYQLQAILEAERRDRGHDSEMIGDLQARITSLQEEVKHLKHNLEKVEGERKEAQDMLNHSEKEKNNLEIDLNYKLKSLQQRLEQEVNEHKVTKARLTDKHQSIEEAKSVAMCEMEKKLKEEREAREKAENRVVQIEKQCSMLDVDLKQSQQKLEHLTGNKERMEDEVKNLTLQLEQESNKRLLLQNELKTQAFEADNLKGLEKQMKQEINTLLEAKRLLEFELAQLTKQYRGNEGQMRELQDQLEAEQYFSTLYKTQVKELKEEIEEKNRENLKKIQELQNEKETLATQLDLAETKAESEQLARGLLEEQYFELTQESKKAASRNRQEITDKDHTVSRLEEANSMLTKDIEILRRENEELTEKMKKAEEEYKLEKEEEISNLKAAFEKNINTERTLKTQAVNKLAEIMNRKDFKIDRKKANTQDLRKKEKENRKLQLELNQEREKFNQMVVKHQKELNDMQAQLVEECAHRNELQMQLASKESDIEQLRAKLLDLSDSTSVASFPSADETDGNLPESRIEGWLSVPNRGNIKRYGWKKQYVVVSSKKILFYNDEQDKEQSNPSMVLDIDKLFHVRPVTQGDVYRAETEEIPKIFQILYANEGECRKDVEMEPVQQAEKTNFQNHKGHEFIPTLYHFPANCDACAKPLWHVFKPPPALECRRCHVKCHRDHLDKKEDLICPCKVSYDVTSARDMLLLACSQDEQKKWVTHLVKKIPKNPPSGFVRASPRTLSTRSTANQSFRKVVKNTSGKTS
Description: Compounds were screened for their ability to inhibit ROCK using a standard radioactive enzyme assay. Assays were carried out in a solution containing 100 mM HEPES (pH 7.5), 10 mM MgCl2, 25 mM NaCl, 2 mM DTT, and 1.5% DMSO. Final substrate concentrations in the assay were 13 μM [γ-^33P] ATP (25 mCi ^33P ATP/mmol ATP, Perkin Elmer, Cambridge, Mass./Sigma Chemicals, St Louis, Mo.) and 27 μM Myelin Basic Protein (MBP). Final enzyme concentration in the assay was 5 nM ROCK. Assays were carried out at room temperature. 1.5 μl of DMSO stock containing serial dilutions of the compound of the present invention (concentrations ranging from 10 μM to 2.6 nM) was placed in a 96 well plate. 50 μl of Solution 1 (100 mM HEPES (pH 7.5), 10 mM MgCl2, […]) was added to the plate. The reaction was initiated by addition of 50 μl of Solution 2 (100 mM HEPES (pH 7.5), 10 mM MgCl2, 4 mM DTT, […] and 10 nM ROCK). After 2 hours the reaction was quenched with 50 μL of 30% trichloroacetic acid (TCA, Fisher) containing 9 mM ATP. Transfer of 140 μL of the quenched reaction to a glass fiber filter plate (Corning, Cat. No. 3511) was followed by washing 3 times with 5% TCA. 50 μl of Optima Gold scintillation fluid (Perkin Elmer) was added and the plates were counted on a Top Count (Perkin Elmer). After removing mean background values for all of the data points the data was fit using Prism software to obtain a Ki(app).

SMILES | Ki [1] [nM] | Ki [2] [nM] | Ki [3] [nM]
N#CCC(=O)N1CCCN(c2cccc(-c3ccnc4[nH]ccc34)n2)CC1 [compound 19] | 500 to 5000 | < 500 | 500 to 5000
CC(C)CNc1cccc(-c2ccnc3[nH]ccc23)n1 [compound 20] | 500 to 5000 | 500 to 5000 | 500 to 5000
CC(=O)N(Cc1ccccc1)c1cc(-c2ccnc3[nH]ccc23)cs1 [compound 21] | < 500 | – | 500 to 5000
CC(=O)N1[C@H](C)CN(c2cccc(-c3ccnc4[nH]ccc34)n2)C[C@@H]1C [compound 22] | < 500 | < 500 | 500 to 5000
COCC(=O)Nc1cc(-c2ccnc3[nH]ccc23)cs1 [compound 23] | 500 to 5000 | – | < 500
c1cc(NC2CCCC2)nc(-c2ccnc3[nH]ccc23)c1 [compound 24, N-Cyclopentyl-6-(1H-pyrrolo[2,3-b]pyridin-4-yl)pyridin-2-amine] | 500 to 5000 | 500 to 5000 | –
CC1CCCN(c2cccc(-c3ccnc4[nH]ccc34)n2)C1 (stereo not drawn) [compound 25, 4-(6-(3-Methylpiperidin-1-yl)pyridin-2-yl)-1H-pyrrolo[2,3-b]pyridine] | 500 to 5000 | < 500 | < 500
CC(=O)N1CCN(c2cccc(-c3ccnc4[nH]ccc34)n2)CC1 [compound 26, 1-(4-(6-(1H-pyrrolo[2,3-b]pyridin-4-yl)pyridin-2-yl)piperazin-1-yl)ethanone] | 500 to 5000 | 500 to 5000 | 500 to 5000
C1=C(c2ccnc3[nH]ccc23)CCC1 [compound 27, 4-Cyclopentenyl-1H-pyrrolo[2,3b]pyridine] | < 500 | < 500 | < 500
Clc1cnc2[nH]ccc2c1C1=CCCC1 [compound 28, 5-Chloro-4-cyclopentenyl-1H-pyrrolo[2,3b]pyridine] | < 500 | < 500 | 500 to 5000
Clc1cnc2[nH]ccc2c1C1=CCCCC1 [compound 29, 5-Chloro-4-cyclohexenyl-1H-pyrrolo[2,3b]pyridine] | < 500 | < 500 | 500 to 5000
C1=C(c2ccnc3[nH]ccc23)CCCC1 [compound 30, 4-Cyclohexenyl-1H-pyrrolo[2,3b]pyridine] | < 500 | < 500 | < 500
CN(C)c1cccc(-c2ccnc3[nH]ccc23)c1 [compound 31, Dimethyl-[3-(1H-pyrrolo[2,3-b]pyridin-4-yl)-phenyl]-amine] | < 500 | < 500 | < 500
Clc1cnc2[nH]ccc2c1-c1cccc(NC2CCCC2)n1 [compound 32, 6-(5-Chloro-1H-pyrrolo[2,3-b]pyridin-4-yl)-N-cyclopentylpyrdin-2-anine] | > 5000 | 500 to 5000 | 500 to 5000
Clc1ccccc1CNc1cccc(-c2ccnc3[nH]ccc23)n1 [compound 33, N-(2-Chlorobenzyl)-6-(1H-pyrrolo[2,3-b]pyridin-4-yl)pyridin-2-amine] | 500 to 5000 | 500 to 5000 | 500 to 5000
Clc1ccccc1CCNc1cccc(-c2ccnc3[nH]ccc23)n1 [compound 34, N-(2-Chlorophenethyl)-6-(1H-pyrrolo[2,3-b]pyridin-4-yl)pyridin-2-amine] | 500 to 5000 | 500 to 5000 | 500 to 5000
CN(CCO)c1cccc(-c2ccnc3[nH]ccc23)n1 [compound 35, 2-(N-(6-(1H-Pyrrolo[2,3-b]pyridin-4-yl)pyridin-2-yl)-N-methylamino)ethanol] | 500 to 5000 | 500 to 5000 | < 500
c1cc(NCC2CCCO2)nc(-c2ccnc3[nH]ccc23)c1 (stereo not drawn) [compound 36, N-((tetrahydrofuran-2-yl)methyl)-6-(1H-pyrrolo[2,3-b]pyridin-4-yl)pyridin-2-amine] | 500 to 5000 | 500 to 5000 | 500 to 5000
